Data published in the supplement of paper PMC11451515.

Tested on: NOMO1
Assay: cell viability relative to DMSO control; higher = less cytotoxic
Conditions: 48 h
Procedure, shortened: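 Before seeding, each leukemia line was adapted for at least four passages in each medium. NOMO1 or SEM cells (500 cells/well) and P12-Ichikawa cells (1000 cells/well) went into 1536-well plates at 5 μl, then received library compounds in DMSO by pin dosing across 11 threefold concentrations, 47 μM to 0.79 nM. Readout was CellTiter-Glo One luminescence after 48 h at 37°C, and viability is given as a per-plate percentage of DMSO wells, with cell-free wells as background.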

[1] = HPLM + 10% dialyzed FBS, 0.000781 µM
[2] = HPLM + 10% dialyzed FBS, 0.00234 µM
[3] = HPLM + 10% dialyzed FBS, 0.00702 µM
[4] = HPLM + 10% dialyzed FBS, 0.0211 µM
[5] = HPLM + 10% dialyzed FBS, 0.0632 µM
[6] = HPLM + 10% dialyzed FBS, 0.19 µM
[7] = HPLM + 10% dialyzed FBS, 0.569 µM
[8] = HPLM + 10% dialyzed FBS, 1.71 µM
[9] = HPLM + 10% dialyzed FBS, 5.12 µM
[10] = HPLM + 10% dialyzed FBS, 15.4 µM
[11] = HPLM + 10% dialyzed FBS, 46.1 µM
[12] = RPMI 5 mM glucose + 10% FBS, 0.000781 µM
[13] = RPMI 5 mM glucose + 10% FBS, 0.00234 µM
[14] = RPMI 5 mM glucose + 10% FBS, 0.00702 µM
[15] = RPMI 5 mM glucose + 10% FBS, 0.0211 µM
[16] = RPMI 5 mM glucose + 10% FBS, 0.0632 µM
[17] = RPMI 5 mM glucose + 10% FBS, 0.19 µM
[18] = RPMI 5 mM glucose + 10% FBS, 0.569 µM
[19] = RPMI 5 mM glucose + 10% FBS, 1.71 µM
[20] = RPMI 5 mM glucose + 10% FBS, 5.12 µM
[21] = RPMI 5 mM glucose + 10% FBS, 15.4 µM
[22] = RPMI 5 mM glucose + 10% FBS, 46.1 µM
[23] = RPMI 5 mM glucose + 10% dialyzed FBS, 0.000781 µM
[24] = RPMI 5 mM glucose + 10% dialyzed FBS, 0.00234 µM
[25] = RPMI 5 mM glucose + 10% dialyzed FBS, 0.00702 µM
[26] = RPMI 5 mM glucose + 10% dialyzed FBS, 0.0211 µM
[27] = RPMI 5 mM glucose + 10% dialyzed FBS, 0.0632 µM
[28] = RPMI 5 mM glucose + 10% dialyzed FBS, 0.19 µM
[29] = RPMI 5 mM glucose + 10% dialyzed FBS, 0.569 µM
[30] = RPMI 5 mM glucose + 10% dialyzed FBS, 1.71 µM
[31] = RPMI 5 mM glucose + 10% dialyzed FBS, 5.12 µM
[32] = RPMI 5 mM glucose + 10% dialyzed FBS, 15.4 µM
[33] = RPMI 5 mM glucose + 10% dialyzed FBS, 46.1 µM

Row | Structure (SMILES) | cell viability [1] | cell viability [2] | cell viability [3] | cell viability [4] | cell viability [5] | cell viability [6] | cell viability [7] | cell viability [8] | cell viability [9] | cell viability [10] | cell viability [11] | cell viability [12] | cell viability [13] | cell viability [14] | cell viability [15] | cell viability [16] | cell viability [17] | cell viability [18] | cell viability [19] | cell viability [20] | cell viability [21] | cell viability [22] | cell viability [23] | cell viability [24] | cell viability [25] | cell viability [26] | cell viability [27] | cell viability [28] | cell viability [29] | cell viability [30] | cell viability [31] | cell viability [32] | cell viability [33]
1 | COc1cc([C@@H]2c3cc4c(cc3[C@@H](O)C3COC(=O)C32)OCO4)cc(OC)c1O (some centres not stated) | 88.8% | 100% | 101% | 37% | 94.3% | 53.1% | 37.9% | 45.9% | 30.5% | 30.3% | 28.2% | 81.3% | 95.6% | 85.7% | 17.6% | 92% | 82.7% | 20.5% | 22.1% | 19.7% | 20.3% | 19.6% | 88.1% | 95.3% | 91.5% | 32.1% | 90.8% | 73.3% | 25.7% | 26.2% | 22.9% | 23% | 22.3%
2 | NNC(=O)c1ccncc1 | 90.3% | 99.2% | 117% | 123% | 121% | 124% | 125% | 123% | 137% | 131% | 123% | 108% | 111% | 114% | 109% | 122% | 135% | 123% | 115% | 128% | 119% | 130% | 120% | 117% | 110% | 117% | 119% | 118% | 119% | 126% | 124% | 126% | 125%
3 | CC=CC1=C(C(=O)O)N2C(=O)[C@@H](NC(=O)[C@H](N)c3ccc(O)cc3)[C@H]2SC1.O | 80.5% | 102% | 113% | 104% | 120% | 116% | 118% | 60.7% | 33.1% | 31.3% | 23.8% | 93.7% | 109% | 113% | 116% | 112% | 125% | 118% | 28.4% | 22.2% | 18.1% | 15.1% | 106% | 104% | 96% | 104% | 117% | 113% | 109% | 89.6% | 24.8% | 23.6% | 20%
4 | COc1cc([S+](C)(=O)[O-])ccc1Nc1nc2ccc(-c3ccc(NC(=O)[C@H](C)c4ccc(F)cc4)cc3)cn2n1 | 104% | 120% | 139% | 146% | 157% | 137% | 139% | 99.3% | 109% | 101% | 100% | 106% | 129% | 122% | 131% | 134% | 123% | 124% | 92.4% | 101% | 94.9% | 97.2% | 114% | 117% | 123% | 130% | 120% | 136% | 129% | 92.7% | 96.3% | 96.1% | 88.8%
5 | Cc1cc(-c2ccc(CC(=O)Nc3ccc(-c4cccnc4)cc3)cc2)ccn1 | – | – | – | – | – | – | – | – | – | – | – | 108% | 118% | 108% | 111% | 107% | 110% | 116% | 96.4% | 84.6% | 54.3% | 40.9% | 119% | 131% | 124% | 110% | 134% | 103% | 106% | 110% | 91.8% | 55.8% | 41.7%
6 | CCc1nc(C(N)=O)c(Nc2ccc(N3CCC(N4CCN(C)CC4)CC3)c(OC)c2)nc1NC1CCOCC1 | – | – | – | – | – | – | – | – | – | – | – | 99.1% | 103% | 109% | 124% | 104% | 112% | 103% | 93.7% | 64.2% | 55.8% | 43.1% | 124% | 112% | 101% | 123% | 147% | 99.9% | 77.9% | 78.7% | 57.5% | 38.1% | 33.3%
7 | O=C(O)c1nn(Cc2ccc(Cl)cc2Cl)c2ccccc12 | 112% | 116% | 106% | 100% | 78.3% | 83.8% | 71.2% | 61.8% | 92.3% | 76.5% | 69.9% | 86.1% | 76.6% | 78.1% | 83.8% | 96.7% | 81.7% | 75.5% | 83.8% | 85.4% | 79.5% | 74% | 79.9% | 89.7% | 97.4% | 94.2% | 91.1% | 85.6% | 73.8% | 75.3% | 83.2% | 81.2% | 76.1%
8 | O=C(c1ccc(C(=O)N2CCC(N3CCCC3)CC2)c(Nc2ccccc2)c1)N1CCC(N2CCCC2)CC1 | 98.6% | 110% | 104% | 103% | 105% | 111% | 112% | 104% | 102% | 113% | 112% | 85.6% | 98.2% | 90.3% | 95% | 106% | 91.7% | 82.3% | 94.3% | 99.7% | 92.6% | 107% | 101% | 110% | 111% | 98.6% | 98.2% | 104% | 101% | 109% | 96.7% | 96.3% | 97.3%
9 | Oc1ccc(C2CNCCc3c2cc(O)c(O)c3Cl)cc1 (configuration not stated) | 91.8% | 106% | 93.7% | 106% | 107% | 101% | 85.3% | 106% | 115% | 103% | 115% | 86% | 90.1% | 81.7% | 96.5% | 93.6% | 80.7% | 90.7% | 96.3% | 85.8% | 90.3% | 87.4% | 84.1% | 95.9% | 98.2% | 95.6% | 99.9% | 94.3% | 95.7% | 93.4% | 95.2% | 101% | 88.5%
10 | COC(=O)Nc1nc2cc(Sc3ccccc3)ccc2[nH]1 | – | – | – | – | – | – | – | – | – | – | – | 114% | 122% | 124% | 113% | 120% | 107% | 115% | 111% | 22.8% | 42.9% | 36.8% | 122% | 111% | 122% | 115% | 140% | 119% | 119% | 115% | 32.6% | 35.1% | 29.7%
11 | COC1=C(CC=C(C)C)C2=C(\C=C/C(=O)O2)C=C1 | 101% | 107% | 125% | 110% | 119% | 114% | 117% | 120% | 102% | 113% | 81.8% | 114% | 117% | 120% | 116% | 104% | 123% | 104% | 108% | 108% | 114% | 97.9% | 116% | 116% | 117% | 105% | 108% | 116% | 120% | 113% | 98.7% | 104% | 85.2%
12 | CN1CCN(CC1)C/2=N/C3=CC=CC=C3NC4=C2C=C(C)S4 | 94.5% | 101% | 102% | 109% | 110% | 96.1% | 93.5% | 86.3% | 86.6% | 75.5% | 77.1% | 89.8% | 85.5% | 80.5% | 88.5% | 100% | 82.4% | 96.7% | 83.9% | 86.1% | 82% | 97.1% | 86.1% | 72.9% | 78.6% | 85% | 88.9% | 86.9% | 99.3% | 89.4% | 76.2% | 69.7% | 81.2%
13 | CN1C(=O)\C(=C/C2=C1N=C(NC3CCOCC3)N=C2)OC4=C(F)C=C(F)C=C4 | 105% | 107% | 105% | 101% | 119% | 100% | 91% | 96.4% | 58.2% | 89.2% | 16.4% | 95.4% | 83.2% | 88.4% | 90.6% | 94.1% | 87.2% | 87.2% | 95.2% | 79.2% | 84% | 23.3% | 86.7% | 97.1% | 104% | 89.2% | 83.5% | 87.1% | 95.5% | 91.4% | 76.7% | 86.3% | 26.4%
14 | COc1ccc(-c2cc3c(C)nc(N)nc3n([C@H]3CC[C@H](OCCO)CC3)c2=O)cn1 | 96.9% | 97.5% | 88.7% | 76.4% | 74.2% | 50% | 52.6% | 38% | 38.8% | 28.3% | 20% | 93.6% | 87% | 90.7% | 84.8% | 87.4% | 64.5% | 68.5% | 47.7% | 43.1% | 40.3% | 28.4% | 86.8% | 86.6% | 80.7% | 75.1% | 66.4% | 58.4% | 50% | 41.2% | 37.6% | 34.8% | 23.3%
15 | CN(C)[C@H]\1[C@@H]2[C@@H](O)[C@H]3\C(=C(O)/[C@]2(O)C(=O)\C(=C1O)C(N)=O)C(=O)C4=C(C=CC=C4O)[C@@]3(C)O | 134% | 117% | 117% | 138% | 127% | 131% | 130% | 108% | 113% | 104% | 30.7% | 112% | 131% | 120% | 135% | 123% | 126% | 122% | 117% | 113% | 119% | 37.1% | 117% | 128% | 117% | 122% | 119% | 128% | 123% | 136% | 105% | 104% | 30.1%
